This note sets out measurements from patent publication EP0028270A1, “Pyrazino-carbazoles, process for their preparation and pharmaceutical compositions containing them” (CASSELLA Aktiengesellschaft, priority 1979, dated 1981).

The nature of one data set: Acute toxicity (LD50). The class given is in vivo. The note with it: no unit, species or route given.
Another data set has as its system Tetrabenazin. Nature of the data set: Tetrabenazine antagonism (antidepressant activity). The class given is in vivo. The note with it: for ED50: no unit, species or route given, read-out: Tetrabenazin Dosis Antagonismus ED50; for LD50/ED50: ratio of LD50 to tetrabenazine antagonism ED50.

By LD50 is commonly meant the dose expected to kill half of the subjects tested. Low values mean a more toxic substance, high ones a less toxic substance. As usually defined, the ED50 is the midpoint of the dose-response relation. As for `COc1ccc2c(c1)c1c3n2CCN=C3CCC1.Cl` [Beispiel 2, 8-Methoxy-2,4,5,6-tetra-hydro-1H-pyrazino[3,2,1-jk]carbazol-Hydrochlorid], the LD50 in “Acute toxicity (LD50)” was 37 mg/kg. Moreover, in the data set on Tetrabenazin, the ED50 worked out at 2 mg/kg and the LD50/ED50 was 18,5.

For the molecule `Cc1ccc2c(c1)c1c3n2CCN=C3CCC1.Cl` [Beispiel 1, 8-Methyl-2,4,5,6-tetra-hydro-1H-pyrazino[3,2,1-jk]carbazol-Hydrochlorid], the LD50 in the data set “Acute toxicity (LD50)” came to 72 mg/kg. Further, in the data set with Tetrabenazin, the ED50 turned out to be 4 mg/kg and the LD50/ED50 is on record as 18,0.

As to `Cc1ccc2c(c1)c1c3n2CCNC3CCC1.Cl` (centres unmarked) [8-Methyl-2,3,3a,4,5,6-hexahydro-1H-pyrazino[3,2,1-jk]-carbazol-Hydrochlorid, reference compound], in the data set with Tetrabenazin, the ED50 amounted to 14 mg/kg and the LD50/ED50 is on record as 8,7.
